Experiment [1] deals with M. tuberculosis mono-resistant to INH (INHR, ATCC 35822), katG S315T. The format is cell-based, Mycobacterium tuberculosis.
Experiment [2] relates to M. tuberculosis mono-resistant to RIF (RMPR, ATCC 35838), rpoB H526Y. The experiment is classed as cell-based, Mycobacterium tuberculosis.

The values that follow come from publication PMC5900025, “Naphthoquinone Derivatives as Scaffold to Develop New Drugs for Tuberculosis Treatment” (Frontiers in Microbiology, 2018).

As a reminder, the MIC is the lowest concentration found to suppress growth.

In brackets after ≈: the same amount, converted by molar mass.

On to `NC1=CC(=O)c2ccccc2C1=O` [Compound 5, 2-Aminonaphthalene-1,4-dione], for which the MIC in experiment [1] and in experiment [2] was 36.1 µM (≈ 6.25 µg/mL) in each case.
As to `CC1(C)CCC2=C(O1)C(=O)c1ccccc1C2=O` [Compound 2, 2,2-Dimethyl-3,4-dihydro-2H-benzo[g]chromene-5, 10-dione], the MIC in experiment [1] and in experiment [2] was 206.6 µM (≈ 50.1 µg/mL) each time.
As to `NNC(=O)c1ccncc1` [INH, isoniazid, reference compound], the minimal inhibitory concentration (MIC) is 14.6 µM (≈ 2 µg/mL) in experiment [1] and no more than 0.219 µM in experiment [2].
In the same order, the values of `O=C1C=C(Nc2ccccc2)C(=O)c2ccccc21` [Compound 6, 2-(Phenylamino)naphthalene-1,4-dione] are 100.4 µM (≈ 25 µg/mL) and 12.5 µM (≈ 3.12 µg/mL).
The corresponding values for `CO[C@H]1/C=C/O[C@@]2(C)Oc3c(C)c(O)c4c(O)c(c(/C=N/N5CCN(C)CC5)c(O)c4c3C2=O)NC(=O)/C(C)=C\C=C\[C@H](C)[C@H](O)[C@@H](C)[C@@H](O)[C@@H](C)[C@H](OC(C)=O)[C@@H]1C` [RIF, rifampicin, reference compound] are 0.304 µM (≈ 0.25 µg/mL) and 622.2 µM (≈ 512 µg/mL).
For the compound `O=C1C(Cl)=C(Cl)C(=O)c2ccccc21` [Compound 1, 2,3-Dichloronaphthalene-1,4-dione], the MIC in experiment [1] and in experiment [2] was 110.6 µM (≈ 25.1 µg/mL) in each case.
Consider `C=CCOC1=CC(=O)c2ccccc2C1=O` [Compound 4, 2-(Allyloxy)naphthalene-1,4-dione], for which the minimum inhibitory concentration (MIC) in experiment [1] and in experiment [2] was 234 µM (≈ 50.1 µg/mL) each time.
As for `CC1(C)CC2=C(O1)C(=O)c1ccccc1C2=O` [Compound 3, 2,2-Dimethyl-2,3-dihydronaphtho[2,3-b]furan-4,9-dione], the MIC in experiment [1] and in experiment [2] was 54.8 µM (≈ 12.5 µg/mL) throughout.
